Data published in patent US12629419B2, “Prevention or mitigation of T-cell engaging agent-related adverse effects” (Hoffmann-La Roche Inc., priority 2020, dated 2026).
“Also recorded” adds a separate entry of the source.

What was measured:
CD4+ and CD8+ T cells [1] = assay: T cell activation (CD25, CD69) in CD20-TCB killing assay; assay type: cell-based; details: 1 nM CD20-TCB; 24 h; inhibitor 0 nM to 1000 nM
Procedure: (§1) A similar experiment was conducted with another TCB. WSU DLCL2 cells were co-cultured together with PBMCs in the presence of 1 nM CD20-TCB (SEQ ID NOs 4-11, 24-35), and escalating sirolimus doses ranging from 0 nM to 1000 nM (FIG. 13).
A similar experiment was conducted with CD20-TCB.
A similar experiment was conducted with CD20-TCB. WSU DLCL2 cells were co-cultured together with PBMCs in the presence of 1 nM CD20-TCB, and escalating everolimus doses ranging from 0 nM to 1000 nM (FIG. 13).
A similar experiment was conducted with CD20-TCB. WSU DLCL2 cells were co-cultured together with PBMCs in the presence of 1 nM CD20-TCB, and escalating ruxolitinib doses ranging from 0 nM to 1000 nM (FIG. 13).
(§2) A similar experiment was conducted with another TCB. […] The killing of B cells was measured as a readout for the impact of the various compounds on TCB efficacy at 24 h (FIGS. 27 and 28). […] Lastly, the levels of cytokines (TNF-α, IFN-γ, IL-2, IL-6, IL-4, IL-10, GM-CSF and IL-1β) were analyzed by Luminex at assay endpoint to assess the impact of the different treatments on TCB-induced cytokine release (FIGS. 32 and 33).
(§3) At 24 hours, tumor cell killing was measured by flow cytometry by exclusion of dead CTV cells. The supernatants were collected and cytokines were measured by Luminex.

[2] = system: CEA-TCB-induced cytokine release; assay: CEA-TCB-induced cytokine release (Luminex, supernatants); details: 10 nM CEA-TCB; for levels of IFN-γ, TNF-α, IL-2, IL-6, MCP-1, IL-8, IL-10, IL-4 and GM-CSF: assay endpoint 72 h (ruxolitinib 69 h), in comparison to samples without inhibitor; for CEA-TCB induced cytokine release: even at the lowest doses tested; for CEA-TCB-induced cytokine release: fixed compound concentrations
Procedure: The levels of cytokines were measured by Luminex in the supernatants of the assay to determine the impact of the different compounds on CEA-TCB-induced cytokine release.

WSU DLCL2 tumor cells = assay: killing assay with PBMCs, CTV labelled WSU DLCL2 tumor cells and CD20-TCB; assay type: cell-based; details: 24 h; for CD20-TCB-mediated target cell killing: 1 nM CD20-TCB, inhibitor 0 nM to 1000 nM; for killing of B cells: WSU cells with PBMCs, CD20-TCB, fixed compound concentrations
Procedure: FIG. 13. In vitro killing assay set-up.
FIG. 14. […] At 24 hours, the tumor cells and PBMCs from technical replicates were pooled and stained with a LIVE/DEAD™ Near-IR dead cell dye to allow exclusion of dead CTV labelled WSU DLCL2 tumor cells by flow cytometry. Mean of n=3 donors+/−SEM.
as §1, §2, §3

[3] = system: CD20-TCB-induced cytokine release; assay: CD20-TCB killing assay, inhibitors added after 18 hours: cytokine release from pre-activated effector cells; assay type: cell-based; details: 100 nM added at 18 h
Procedure: (§4) FIG. 34. In vitro killing assay set-up. Cell Trace™ Violet (CTV) labelled WSU DLCL2 tumor cells were co-cultured together with PBMCs [E:T=200′000:20′000] and stimulated with CD20-TCB for 18 h.
(§5) In this assay, CTV labelled WSU DLCL2 tumors cells were co-cultured with PBMCs in the presence of escalating doses of CD20-TCB for 18 hours.

SUDLH-8 tumor cells = assay: killing assay with PBMCs, CTV labelled SUDLH-8 tumor cells and CD19-TCB; assay type: cell-based; details: 24 hrs; 100 nM kinase inhibitors or dexamethasone, 5 μg/mL antibodies
Procedure: FIG. 64. In vitro killing assay set-up. PBMCs were co-cultured with CellTrace™ Violet (CTV) labelled SUDLH-8 tumor cells (E:T=10:1) in the presence of escalating concentrations of CD19-TCB in media supplemented with the different kinase inhibitors (100 nM) for 24 hrs.
FIG. 69. In vitro killing assay set-up. PBMCs were co-cultured with CTV labelled SUDLH-8 cells (E:T=10:1) in the presence of escalating concentrations of CD19-TCB in media supplemented with the different JAK inhibitors (100 nM) for 24 hrs.
FIG. 73. In vitro killing assay set-up.
PBMCs were co-cultured together with CellTrace™ Violet (CTV) labelled SUDLH-8 tumor cells and escalating concentrations of CD19-TCB in the presence of the different kinase inhibitors, including also the Src inhibitor dasatinib (FIG. 64). At assay endpoint (24 hrs), the killing of CTV labelled SUDLH-8 cells was measured by flow cytometry by exclusion of the dead SUDLH-8 cells with a Live/Dead stain. […] Lastly, the levels of cytokines were measured in the supernatants of the assay to evaluate the effect of mTOR, JAK and Src inhibitors on CD19-TCB-induced cytokine release.
(§6) At assay endpoint (24 hrs), the killing of CTV labelled SUDLH-8 cells was measured by flow cytometry by exclusion of the dead SUDLH-8 cells with a Live/Dead stain. […] Lastly, the levels of cytokines were measured in the supernatants of the assay to assess the effect of the JAK inhibitors on CD19-TCB-induced cytokine release.
as §6, with “stain to evaluate the effect of the different mitigation approaches on CD19-TCB-dependent killing.” for “stain.”, “address” for “assess”

CD4+ and CD8+ T cells [4] = assay: CD20-TCB killing assay, inhibitors added after 18 hours: T cell activation; assay type: cell-based; details: 100 nM added at 18 h
Procedure: as §4, §5

[5] = system: CD19-TCB-induced cytokine release; assay: CD19-TCB-induced cytokine release in humanized NSG mice (serum, Luminex); assay type: in vivo; details: serum 6 hrs post treatment with CD19-TCB
Source text: (§7) FIG. 81. In vivo experiment timelines and dosing schedule.
(§8) To best reproduce the pharmacodynamic profile of ruxolitinib, dasatinib and sirolimus in the clinic and to verify whether the resulting exposure would be sufficient to prevent CD19-TCB-induced cytokine release, dasatinib and ruxolitinib were given per os twice per day, and sirolimus was given per os twice per day on day 1 and then once per day.

CD20+ B cells = assay: CD19-TCB-induced B cell depletion in humanized NSG mice; assay type: in vivo; details: for CD19-TCB-induced B cell depletion in blood: co-treatment with 0.5 mg/kg CD19-TCB; for CD19-TCB-induced CD20+ B cell depletion in the spleen: 72 hrs (termination)
Source text: as §7, §8
At 48 hrs and 72 hrs, blood was collected by tail-vein bleeding and the CD20+ B cell count was measured by flow cytometry (FIGS. 82A and B) to assess the effect of the different treatments on CD19-TCB-induced B cell depletion. […] Its half-life being around 6-7 hrs and dasatinib being given only twice per day, a lack of exposure could likely explain that CD19-TCB was partially active, resulting in B cell depletion. At experiment termination (72 hrs), spleens were collected and the B cell count was measured by flow-cytometry (FIG. 83). […] However, their inhibitory effect was stronger than methylprednisolone (FIG. 83).

[6] = 1 nM CD20-TCB, three donors, between 18 hours and 44 hours
[7] = measured at 44 hours, escalating CD20-TCB
[8] = 48 hrs, p.o.: 6×30 mg/kg ruxolitinib, 4×5 mg/kg sirolimus, dexamethasone, methylprednisolone
[9] = 72 hrs, dasatinib 6×50 mg/kg p.o.

SMILES	T cell activation (CD25 and CD69 on CD4+ and CD8+ T cells) (CD4+ and CD8+ T cells [1])	levels of IFN-γ, TNF-α, IL-2, IL-6, MCP-1, IL-8, IL-10, IL-4 and GM-CSF [2]	CEA-TCB induced cytokine release [2]	CEA-TCB-induced cytokine release ([2]; 66 h)	CD20-TCB-mediated target cell killing (WSU DLCL2 tumor cells)	killing of B cells (WSU DLCL2 tumor cells)	further release of IFN-γ, IL-2, IL-6 ([3]; 1 nM CD20-TCB, three donors)	IL-2, IFN-γ, IL-6 and GM-CSF release ([3]; between 18 hours and 44 hours)	release of TNF-α and IL-1β ([3]; between 18 hours and 44 hours)	CD19-TCB-dependent killing of CTV labelled SUDLH-8 cells (SUDLH-8 tumor cells)	T cell activation (CD4+ and CD8+ T cells [4]; [6])	T cell activation (CD4+ and CD8+ T cells [4]; [7])	CD19-TCB-induced IFN-γ and IL-6 release [5]	CD19-TCB-induced IL-2 and TNF-α [5]	CD19-TCB-induced B cell depletion in blood (CD20+ B cells; [8])	CD19-TCB-induced CD20+ B cell depletion in the spleen (CD20+ B cells)	CD19-TCB-induced B cell depletion in blood (CD20+ B cells; [9])	also measured
CO[C@H]1C[C@@H]2CC[C@@H](C)[C@@](O)(O2)C(=O)C(=O)N2CCCC[C@H]2C(=O)O[C@H]([C@H](C)C[C@@H]2CC[C@@H](OCCO)[C@H](OC)C2)CC(=O)[C@H](C)/C=C(\C)[C@@H](O)[C@@H](OC)C(=O)[C@H](C)C[C@H](C)/C=C/C=C/C=C/1C [everolimus, Everolimus]	did not fully inhibit	very low	strongly downregulated; also recorded: strongly reduces	inhibited; also recorded: comparable to dexamethasone and dasatinib	did not fully inhibit	did neither prevent	prevented further release	stopped	to a lower extent	did not prevent	did not impact further	did not impact						
N#CC[C@H](C1CCCC1)n1cc(-c2ncnc3[nH]ccc23)cn1 [ruxolitinib, Ruxolitinib]	did not fully inhibit	very low	strongly downregulated; also recorded: strongly reduces	inhibited; also recorded: comparable to dexamethasone and dasatinib	did not fully inhibit	did neither prevent				did not prevent	did not impact further	did not impact	comparable to the pre-treatement with obinutuzumab	slightly weaker	slightly prevented	only partially prevented	comparable to the effect dexamethasone	degree of inhibition of IFN-γ, TNF-α, GM-CSF, IL-6 and IL-8 levels ([2]; escalating concentrations, ruxolitinib vs. baricitinib): similar; IL-2 levels ([2]; 66 h, compared with the mTOR inhibitors): reduced IL-2 levels less strongly; IL-2 release ([3]; 1 nM CD20-TCB, three donors): did not prevent; further release of IFN-γ and IL-6 ([3]; 1 nM CD20-TCB, three donors): prevented further release; further production of IFN-γ, IL-6 ([3]; between 18 hours and 44 hours): prevented further production; further production of IL-2 ([3]; between 18 hours and 44 hours): did not prevent further production
CO[C@H]1C[C@@H]2CC[C@@H](C)[C@@](O)(O2)C(=O)C(=O)N2CCCC[C@H]2C(=O)O[C@H]([C@H](C)C[C@@H]2CC[C@@H](O)[C@H](OC)C2)CC(=O)[C@H](C)/C=C(\C)[C@@H](O)[C@@H](OC)C(=O)[C@H](C)C[C@H](C)/C=C/C=C/C=C/1C [sirolimus, Sirolimus]	did not fully inhibit	very low	strongly downregulated; also recorded: strongly reduces	inhibited; also recorded: comparable to dexamethasone and dasatinib	did not fully inhibit	did neither prevent	prevented further release	stopped	to a lower extent	did not prevent	did not impact further	did not impact	comparable to the pre-treatement with obinutuzumab	comparable to the pre-treatement with Gazyva®	slightly prevented	only partially prevented	comparable to the effect dexamethasone	
CO[C@H]1C[C@@H]2CC[C@@H](C)[C@@](O)(O2)C(=O)C(=O)N2CCCC[C@H]2C(=O)O[C@H]([C@H](C)C[C@@H]2CC[C@@H](OC(=O)C(C)(CO)CO)[C@H](OC)C2)CC(=O)[C@H](C)/C=C(\C)[C@@H](O)[C@@H](OC)C(=O)[C@H](C)C[C@H](C)/C=C/C=C/C=C/1C [temsirolimus, Temsirolimus]	did not fully inhibit		strongly downregulated; also recorded: strongly reduces	inhibited; also recorded: comparable to dexamethasone and dasatinib	did not fully inhibit	did neither prevent	prevented further release		to a lower extent	did not prevent	did not impact further	did not impact						
